# From patent US6613762B2, “Gambogic acid, analogs and derivatives as activators of caspases and inducers of apoptosis” (Cytovia, Inc., priority 1999, dated 2003)
# pEC50: −log10 of the molar value. Like-named read-outs stand apart in the source and are kept apart here.
# Columns and labels:
# [1] = test system: caspase cascade, PC-3 cells; experiment: Known antineoplastic compounds as caspase cascade activators (Example 92), PC-3; type: cell-based, human; settings: 10 μM final, 24 h; ratio of net RFU to control; ratio around 1 = not an efficient activator
# Method: (§8) An aliquot of 45 μl of cells was added to a well of a 96-well microtiter plate containing 5 μl of a 10% DMSO in RPMI-1640 media solution containing 100 μM of test compounds (10 μM final). An aliquot of 45 μl of cells was added to a well of a 96-well microtiter plate containing 5 μl of a 10% DMSO in RPMI-1640 media solution without test compound as the control sample. The samples were mixed by agitation and then incubated at 37° C. for 24 h in a 5% CO2-95% humidity incubator. After incubation, the samples were removed from the incubator and 50 μl of a solution containing 20 μM of N-(Ac-DEVD)-N′-ethoxycarbonyl-R110 fluorogenic substrate (SEQ ID NO:1) (Cytovia, Inc.), 20% sucrose (Sigma), 20 mM DTT (Sigma), 200 mM NaCl (Sigma), 40 mM Na PIPES buffer pH 7.2 (Sigma), and 500 μg/ml lysolecithin (Calbiochem) was added. The samples were mixed by agitation and incubated for 3 h at room temperature. Using a fluorescent plate reader (Model 1420 Wallac Instruments), an initial reading (T=0) was made approximately 1-2 min. after addition of the substrate solution, employing excitation at 485 nm and emission at 530 nm, to determine the background fluorescence of the control sample. After the 3 h incubation, the samples were read for fluorescence as above (T=3 h).
# (§9) The Relative Fluorescence Unit values (RFU) were used to calculate the sample readings as follows:
# (§10) The activity in caspase cascade activation was determined by the ratio of the net RFU value for test compounds to that of control samples.
# [2] = test system: caspase cascade, T-47D cells; experiment: Known antineoplastic compounds as caspase cascade activators (Example 92), T-47D; type: cell-based, human; settings: 10 μM final, 24 h; ratio of net RFU to control; ratio around 1 = not an efficient activator
# Method: as §8, §9, §10
# [3] = test system: caspase cascade, human prostate cancer cell line PC-3; experiment: Caspase cascade activation assay (Example 90), PC-3; type: cell-based; settings: 24 h incubation; for pEC50: Homo sapiens, sigmoidal dose-response, read-out: PC-3 EC50 (caspase activation potency)
# Method: (§1) Human breast cancer cell lines T-47D and ZR-75-1, human prostate cancer cell line PC-3, human leukemia cancer cell line HL-60 and human non-transformed fibroblast cell line MRC-5 cells were grown according to media component mixtures designated by The American Type Culture Collection+10% FCS (Life Technologies, Inc.), in a 5% CO2-95% humidity incubator at 37° C. T-47D, ZR-75-1 and PC-3 cells were maintained at a cell density between 30 and 80% confluency and for HL-60 at a cell density of 0.1 to 0.6×10^6 cells/m. Cells were harvested at 600× g and resuspended at 0.65×10^6 cells/ml into appropriate media +10% FCS. […] The samples were mixed by agitation and incubated at room temperature.
# (§2) The EC50 (nM) was determined by a sigmoidal dose-response calculation (Prism 2.0, GraphPad Software Inc.).
# [4] = test system: caspase cascade, human breast cancer cell line T-47D; experiment: Caspase cascade activation assay (Example 90), T-47D; type: cell-based; settings: 24 h incubation; for pEC50: Homo sapiens, T47D, sigmoidal dose-response, read-out: T-47D EC50 (caspase activation potency)
# Method: as §1, §2
# [5] = test system: human prostate cancer cell line DU-145; experiment: Inhibition of cell proliferation (GI50) and cell death (LC50), DU-145; type: cell-based
# Method: (§3) T47D, ZR-75-1, PC-3, human prostate cancer cell line DU-145, human non-small cell lung cancer cell line A-549, human small cell lung cancer cell line SHP-77, HL-60 and MRC-5 cells were grown and harvested as in Example 90. […] The samples were mixed by agitation and incubated at 37° C. for 2-4 h in a 5% CO2-95% humidity incubator. […] This determines the possible background absorbance of the test compounds. No absorbance for gambogic acid or its analogs or derivatives was found at 490 nm. After the 2-4 h incubation, the samples were read for absorbance as above (ATest).
# (§4) Baseline for GI50 (dose for 50% inhibition of cell proliferation) and LC50 (dose for 50% cell death) of initial cell numbers was determined by adding an aliquot of 90 μl of cells or 90 μl of media, respectively, to wells of a 96-well microtiter plate containing 10 μl of a 10% DMSO in RPMI-1640 media solution. […] The samples were mixed by agitation and incubated at 37° C. for 2-4 h in a 5% CO2-95% humidity incubator. Absorbance was read as above, (AT=0) defining absorbance for initial cell number used as baseline in GI50 determinations and (Amin) defining absorbance for media alone used as baseline in LC50 determinations.
# (§5) GI50 (dose for 50% inhibition of cell proliferation)
# (§6) LC50 (dose for 50% cell death)
# (§7) 50=100×[(ATest−Amin)/(AT=0−Amin)]
# [6] = test system: caspase cascade, human leukemia cancer cell line HL-60; experiment: Caspase cascade activation assay (Example 90), HL-60; type: cell-based; settings: Homo sapiens, HL-60; 24 h incubation; sigmoidal dose-response; read-out: HL-60 EC50 (caspase activation potency)
# Method: as §1, §2
# [7] = test system: caspase cascade, human breast cancer cell line ZR-75-1; experiment: Caspase cascade activation assay (Example 90), ZR-75-1; type: cell-based; settings: Homo sapiens, ZR-75-1; 24 h incubation; sigmoidal dose-response; read-out: ZR-75-1 EC50 (caspase activation potency)
# Method: as §1, §2
# [8] = test system: PC-3 cells; experiment: Inhibition of cell proliferation (GI50) and cell death (LC50), PC-3; type: cell-based
# Method: as §3, §4, §5, §6, §7
# [9] = test system: MRC-5 cells; experiment: Inhibition of cell proliferation (GI50) and cell death (LC50), MRC-5; type: cell-based; settings: Homo sapiens, MRC5; MRC-5, 48 h; read-out: GI50 (dose for 50% inhibition of cell proliferation)
# Method: as §3, §4, §5, §6, §7
# [10] = as above; type: cell-based; settings: human
# Method: as §3, §4, §5, §6, §7
# [11] = test system: T-47D cells; experiment: Inhibition of cell proliferation (GI50) and cell death (LC50), T-47D; type: cell-based; settings: Homo sapiens, T47D, 48 h; for GI50: read-out: GI50 (dose for 50% inhibition of cell proliferation); for CC50: read-out: LC50 (dose for 50% cell death)
# Method: as §3, §4, §5, §6, §7
# [12] = test system: caspase cascade; experiment: Caspase cascade activation assay (Example 90), MRC-5; type: cell-based, human; settings: human
# Method: as §1, §2
# [13] = test system: human small cell lung cancer cell line SHP-77; experiment: Inhibition of cell proliferation (GI50) and cell death (LC50), SHP-77; type: cell-based; settings: Homo sapiens
# Method: as §3, §4, §5, §6, §7
# [14] = test system: HL-60 cells; experiment: Inhibition of cell proliferation (GI50) and cell death (LC50), HL-60; type: cell-based; settings: Homo sapiens, HL-60, 48 h
# Method: as §3, §4, §5, §6, §7
# [15] = test system: human non-small cell lung cancer cell line A-549; experiment: Inhibition of cell proliferation (GI50) and cell death (LC50), A-549; type: cell-based; settings: Homo sapiens
# Method: as §3, §4, §5, §6, §7
# [16] = test system: ZR-75-1 cells; experiment: Inhibition of cell proliferation (GI50) and cell death (LC50), ZR-75-1; type: cell-based; settings: Homo sapiens, ZR-75-1, 48 h
# Method: as §3, §4, §5, §6, §7
# [17] = test system: KB-V1 cell line; settings: cited from earlier work
# [18] = test system: KB cell line; settings: cited from earlier work
# [19] = Homo sapiens, DU-145, 48 h; read-out: GI50 (dose for 50% inhibition of cell proliferation)
# [20] = Homo sapiens, PC-3, 48 h; read-out: GI50 (dose for 50% inhibition of cell proliferation)
# [21] = ratio of net RFU of test compound to control, 0.16 to 10 μM
# [22] = Homo sapiens, DU-145, 48 h, read-out: LC50 (dose for 50% cell death)
# [23] = Homo sapiens, PC-3, 48 h, read-out: LC50 (dose for 50% cell death)
# [24] = read-out: LC50 (dose for 50% cell death)
# [25] = read-out: GI50 (dose for 50% inhibition of cell proliferation)
# [26] = reported by Lin et al., Magn. Reson. Chem. 31:340-347 (1993)
structure (smiles),measurement,setting,value
O=c1[nH]cc(F)c(=O)[nH]1 [5-fluorouracil],"Caspase cascade activation ratio, PC-3",[1],0.7
same,"Caspase cascade activation ratio, T-47D",[2],0.8
CC[C@@]1(O)C(=O)OCc2c1cc1n(c2=O)Cc2cc3ccccc3nc2-1 [Camptothecin],"Caspase cascade activation ratio, PC-3",[1],0.6
same,"Caspase cascade activation ratio, T-47D",[2],0.7
COc1cccc2c1C(=O)c1c(O)c3c(c(O)c1C2=O)C[C@@](O)(C(=O)CO)C[C@@H]3O[C@H]1C[C@H](N)[C@H](O)[C@H](C)O1 [Doxorubicin],"Caspase cascade activation ratio, PC-3",[1],1.1
same,"Caspase cascade activation ratio, T-47D",[2],1.3
COc1cc([C@@H]2c3cc4c(cc3[C@@H](O[C@@H]3O[C@@H]5CO[C@@H](C)O[C@H]5[C@H](O)[C@H]3O)[C@H]3COC(=O)[C@H]23)OCO4)cc(OC)c1O [Etoposide],"Caspase cascade activation ratio, PC-3",[1],0.8
same,"Caspase cascade activation ratio, T-47D",[2],1.0
"CC(C)=CCC/C(C)=C/Cc1c(O)c(CC=C(C)C)c2c(c1O)C(=O)C1=CC3CC4C(C)(C)OC(C/C=C(/C)C(=O)O)(C3=O)C14O2 (stereo not drawn) [Example 2, Gambogenic Acid]",pEC50,[3],5.87
same,pEC50,[4],6.51
same,GI50,[5]; [19],600 nM
same,CC50,"[5]; Homo sapiens, DU-145, 48 h; read-out: LC50 (dose for 50% cell death)",5000 nM
same,pEC50,[6],6.47
same,pEC50,[7],5.94
same,GI50,[8]; [20],3000 nM
same,CC50,"[8]; Homo sapiens, PC-3, 48 h; read-out: LC50 (dose for 50% cell death)",5000 nM
same,GI50,[9],500 nM
same,CC50,"[10]; MRC-5, 48 h, read-out: LC50 (dose for 50% cell death)",5000 nM
same,GI50,[11]; T-47D,500 nM
same,CC50,[11]; T-47D,500 nM
same,pEC50,"[12]; 24 h incubation, sigmoidal dose-response, read-out: MRC-5 EC50 (caspase activation potency)",5.90
"CC(C)=CCC/C(C)=C/Cc1c(O)c(CC=C(C)C)c2c(c1O)C(=O)C1=CC3CC4C(C)(C)OC(C/C=C(/C)C=O)(C3=O)C14O2 (stereo not drawn) [Example 3, Gambogenin]",PC-3 Ratio (caspase activity),[3]; [21],2.9
same,T-47D Ratio (caspase activity),[4]; [21],7.0
same,CC50,[5]; [22],5000 nM
same,GI50,[5]; [19],2000 nM
same,CC50,[8]; [23],5000 nM
same,GI50,[8]; [20],5000 nM
same,GI50,[9],3000 nM
same,CC50 at 48 h,[10],5000 nM
same,CC50,[11],500 nM
same,GI50,[11]; T-47D,500 nM
"COC(=O)/C(C)=C\CC12OC(C)(C)C3CC(C=C4C(=O)c5c(OC)c6c(c(CC=C(C)C)c5OC431)OC(C)(CCC=C(C)C)C=C6)C2=O (stereo not drawn) [Example 6, Methyl-6-methoxy-gambogate]",pEC50,[3],5.30
same,CC50,"[13]; SHP77, 48 h, read-out: LC50 (dose for 50% cell death)",500 nM
same,GI50,"[13]; SHP77, SHP-77, 48 h, read-out: GI50 (dose for 50% inhibition of cell proliferation)",500 nM
same,pEC50,[4],5.55
same,CC50,[5]; [22],900 nM
same,GI50,[5]; [19],500 nM
same,CC50,[14]; [24],800 nM
same,GI50,[14]; [25],100 nM
same,CC50,"[15]; A549, 48 h, read-out: LC50 (dose for 50% cell death)",900 nM
same,GI50,"[15]; A549, A-549, 48 h, read-out: GI50 (dose for 50% inhibition of cell proliferation)",500 nM
same,CC50,[8]; [23],500 nM
same,GI50,[8]; [20],500 nM
same,GI50,[9],500 nM
same,CC50 at 48 h,[10],500 nM
same,CC50,[11],80 nM
same,GI50,[11]; T-47D,50 nM
same,CC50,[16]; [24],500 nM
same,GI50,[16]; [25],400 nM
"CC(C)=CCCC1(C)C=Cc2c(O)c3c(c(CC=C(C)C)c2O1)OC12C(=CC4CC1C(C)(C)OC2(C/C=C(/C)C(=O)N1CCN(C)CC1)C4=O)C3=O (stereo not drawn) [Example 9, Gambogyl (4-Methylpiperazine)]",pEC50,[3],5.23
same,pEC50,[4],6.00
same,pEC50,[7],5.69
same,EC50 at 24 h,[12],1900 nM
"CC(C)=CCCC1(C)C=Cc2c(O)c3c(c(CC=C(C)C)c2O1)OC12C(=CC4CC1C(C)(C)OC2(C/C=C(\C)C(=O)O)C4=O)C3=O (stereo not drawn) [Example 18, Isogambogic Acid]",Cytotoxicity against KB-V1 cell line,[17],cytotoxic
same,Cytotoxicity against KB cell line,[18],cytotoxic
CN(Cc1cnc2nc(N)nc(N)c2n1)c1ccc(C(=O)N[C@@H](CCC(=O)O)C(=O)O)cc1 [Methotrexate],"Caspase cascade activation ratio, PC-3",[1],0.7
same,"Caspase cascade activation ratio, T-47D",[2],0.8
CC(=O)O[C@H]1C(=O)[C@@]2(C)[C@H]([C@H](OC(=O)c3ccccc3)[C@]3(O)C[C@H](OC(=O)[C@H](O)[C@@H](NC(=O)c4ccccc4)c4ccccc4)C(C)=C1C3(C)C)[C@]1(OC(C)=O)CO[C@@H]1C[C@@H]2O [Taxol],"Caspase cascade activation ratio, PC-3",[1],0.7
same,"Caspase cascade activation ratio, T-47D",[2],0.9
CC[C@]1(O)C[C@@H]2CN(CCc3c([nH]c4ccccc34)[C@@](C(=O)OC)(c3cc4c(cc3OC)N(C)[C@H]3[C@@](O)(C(=O)OC)[C@H](OC(C)=O)[C@]5(CC)C=CCN6CC[C@]43[C@@H]65)C2)C1 [Vinblastine],"Caspase cascade activation ratio, PC-3",[1],0.8
same,"Caspase cascade activation ratio, T-47D",[2],0.9
"CC(C)=CCc1c2c(c(O)c3c1OC14C(=CC5CC1C(C)(C)OC4(C/C=C(\C)CO)C5=O)C3=O)C=CC(C)(C)O2 (stereo not drawn) [isomorellinol, reference compound]",Cytotoxicity against KB-V1 cell line,[17]; [26],cytotoxic
same,Cytotoxicity against KB cell line,[18]; [26],cytotoxic
